Data: patent US20100267561A1, “HERBICIDAL PYRIDAZINONE DERIVATIVES” (priority 2007, published 2010)

Legend:
Assay type in all cases: in vivo
[1] = tested on: Italian ryegrass (Lolium multiflorum); test: Test B pre-/postemergence plant response; conditions: for Ryegrass, Italian plant response rating: 8 g ai/ha
Excerpt: (§1) Seeds of plant species selected from blackgrass (Alopecurus myosuroides), downy bromegrass (Bromus tectorum), green foxtail (Setaria viridis), Italian ryegrass (Lolium multiflorum), wheat (Triticum aestivum), wild oat (Avena fatua), catchweed bedstraw (Galium aparine), bermudagrass (Cynodon dactylon), surinam grass (Brachiaria decumbens), cocklebur (Xanthium strumarium), corn (Zea mays), large crabgrass (Digitaria sanguinalis), woolly cupgrass (Eriochloa villosa), giant foxtail (Setaria faberii), goosegrass (Eleusine indica), johnsongrass (Sorghum halepense), kochia (Kochia scoparia), lambsquarters (Chenopodium album), morningglory (Ipomoea coccinea), eastern black (E.B.) nightshade (Solanum ptycanthum), yellow nutsedge (Cyperus esculentus), pigweed (Amaranthus retroflexus), common ragweed (Ambrosia elation), Russian thistle (Salsola iberica), soybean (Glycine max), common (oilseed) sunflower (Helianthus annuus), and velvetleaf (Abutilon theophrasti) were planted and treated preemergence with test chemicals formulated in a non-phytotoxic solvent mixture which included a surfactant.
(§2) At the same time, plants selected from these crop and weed species and also winter barley (Hordeum vulgare), canarygrass (Phalaris minor), chickweed (Stellaria media) and windgrass (Apera spica-venti) were treated with postemergence applications of some of the test chemicals formulated in the same manner. Plants ranged in height from 2 to 18 cm (1- to 4-leaf stage) for postemergence treatments.
(§3) Plant species in the flooded paddy test consisted of rice (Oryza sativa), umbrella sedge (Cyperus difformis), ducksalad (Heteranthera limosa) and barnyardgrass (Echinochloa crus-galli) grown to the 2-leaf stage for testing. At time of treatment, test pots were flooded to 3 cm above the soil surface, treated by application of test compounds directly to the paddy water, and then maintained at that water depth for the duration of the test. Treated plants and controls were maintained in a greenhouse for 13 to 15 days, after which time all species were compared to controls and visually evaluated. Plant response ratings, summarized in Table B, are based on a scale of 0 to 100 where 0 is no effect and 100 is complete control. A dash (-) response means no test result.

[2] = tested on: cocklebur (Xanthium strumarium); test: Test B pre-/postemergence plant response; conditions: for Cocklebur plant response rating: 8 g ai/ha
Excerpt: as §1, §2, §3

[3] = tested on: velvetleaf (Abutilon theophrasti); test: Test B pre-/postemergence plant response; conditions: for Velvetleaf plant response rating: 8 g ai/ha
Excerpt: as §1, §2, §3

[4] = tested on: bermudagrass (Cynodon dactylon); test: Test B pre-/postemergence plant response; conditions: for Bermudagrass plant response rating: 8 g ai/ha
Excerpt: as §1, §2, §3

[5] = tested on: lambsquarters (Chenopodium album); test: Test B pre-/postemergence plant response; conditions: for Lambsquarters plant response rating: 8 g ai/ha
Excerpt: as §1, §2, §3

[6] = tested on: Russian thistle (Salsola iberica); test: Test B pre-/postemergence plant response; conditions: Preemergence
Excerpt: as §1, §2, §3

[7] = tested on: soybean (Glycine max); test: Test B pre-/postemergence plant response; conditions: for Soybean plant response rating: 8 g ai/ha
Excerpt: as §1, §2, §3

[8] = tested on: goosegrass (Eleusine indica); test: Test B pre-/postemergence plant response; conditions: for Goosegrass plant response rating: 8 g ai/ha
Excerpt: as §1, §2, §3

[9] = tested on: large crabgrass (Digitaria sanguinalis); test: Test B pre-/postemergence plant response; conditions: for Crabgrass, Large plant response rating: 8 g ai/ha
Excerpt: as §1, §2, §3

[10] = tested on: common ragweed (Ambrosia elation); test: Test B pre-/postemergence plant response; conditions: for Ragweed plant response rating: 8 g ai/ha
Excerpt: as §1, §2, §3

[11] = tested on: barnyardgrass (Echinochloa crus-galli); test: Test B flooded paddy test plant response
How it was run: (§4)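 Rice, umbrella sedge, ducksalad and barnyardgrass at 2-leaf stage; pots flooded to 3 cm, compounds applied into paddy water, depth held throughout. Greenhouse 13 to 15 days, then visual rating vs untreated controls on 0–100 scale (0 no effect, 100 complete control); dash means no test result.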

[12] = tested on: umbrella sedge (Cyperus difformis); test: Test B flooded paddy test plant response
How it was run: as §4

[13] = tested on: ducksalad (Heteranthera limosa); test: Test B flooded paddy test plant response
How it was run: as §4

[14] = tested on: rice (Oryza sativa); test: Test B flooded paddy test plant response
How it was run: as §4

[15] = Postemergence, 16 g ai/ha, scale 0 to 100
[16] = Postemergence, 31 g ai/ha, scale 0 to 100, 0 no effect, 100 complete control
[17] = Postemergence, 62 g ai/ha, scale 0 to 100, 0 no effect, 100 complete control
[18] = Preemergence, 16 g ai/ha, scale 0 to 100 (0 no effect, 100 complete control)
[19] = Preemergence, 31 g ai/ha, 0 to 100 scale, 0 no effect, 100 complete control
[20] = Preemergence, 62 g ai/ha, scale 0 to 100
[21] = Flood (flooded paddy test), 62 g ai/ha, scale 0 to 100, 0 no effect, 100 complete control
[22] = Flood (flooded paddy test), 125 g ai/ha, scale 0 to 100, 0 no effect, 100 complete control
[23] = Flood (flooded paddy test), 250 g ai/ha, scale 0 to 100, 0 no effect, 100 complete control
[24] = Flood, 31 g ai/ha, scale 0 to 100

Cc1cc(-c2ccc(Cl)cc2)nn1-c1c(OC(=O)c2cccc(Cl)c2)cnn(C)c1=O [Compound 32]
0: Cocklebur plant response rating ([2]; postemergence, 0-100 scale) | Plant response rating, Cocklebur [2, 15] | Plant response rating, Cocklebur [2, 16] | Plant response rating, Cocklebur [2, 17] | Plant response rating, Cocklebur [2, 18] | Plant response rating, Cocklebur [2, 19] | Plant response rating, Cocklebur [2, 20] | Cocklebur plant response rating ([2]; Preemergence, scale 0 to 100) | Velvetleaf plant response rating ([3]; postemergence, 0-100 scale) | Plant response rating, Velvetleaf [3, 15] | Plant response rating, Velvetleaf [3, 17] | Plant response rating, Velvetleaf [3, 18] | Plant response rating, Velvetleaf [3, 19] | Plant response rating, Velvetleaf [3, 20] | Velvetleaf plant response rating ([3]; Preemergence, scale 0 to 100) | Bermudagrass plant response rating ([4]; Preemergence, scale 0 to 100 (0 no effect, 100 complete control)) | Plant response rating, Bermudagrass [4, 18] | Plant response rating, Bermudagrass [4, 19] | Plant response rating, Bermudagrass [4, 20] | Lambsquarters plant response rating ([5]; postemergence, 0-100 scale) | Plant response rating, Lambsquarters [5, 15] | Plant response rating, Lambsquarters [5, 16] | Plant response rating, Lambsquarters [5, 17] | Plant response rating, Lambsquarters [5, 18] | Plant response rating, Lambsquarters [5, 19] | Plant response rating, Lambsquarters [5, 20] | Lambsquarters plant response rating ([5]; Preemergence, scale 0 to 100) | Plant response rating, Russian Thistle ([6]; 16 g ai/ha, scale 0 to 100 (0 no effect, 100 complete control)) | Plant response rating, Russian Thistle ([6]; 31 g ai/ha, 0 to 100 scale, 0 no effect, 100 complete control) | Plant response rating, Russian Thistle ([6]; 62 g ai/ha, scale 0 to 100) | Russian Thistle plant response rating ([6]; 8 g ai/ha, scale 0 to 100) | Soybean plant response rating ([7]; postemergence, 0-100 scale) | Plant response rating, Soybean [7, 15] | Plant response rating, Soybean [7, 17] | Plant response rating, Soybean [7, 18] | Plant response rating, Soybean [7, 19] | Plant response rating, Soybean [7, 20] | Soybean plant response rating ([7]; Preemergence, scale 0 to 100) | Goosegrass plant response rating ([8]; postemergence, 0-100 scale) | Ragweed plant response rating ([10]; postemergence, 0-100 scale) | Plant response rating, Ragweed [10, 15] | Plant response rating, Ragweed [10, 16] | Plant response rating, Ragweed [10, 17] | Plant response rating, Ragweed [10, 18] | Plant response rating, Ragweed [10, 19] | Plant response rating, Ragweed [10, 20] | Ragweed plant response rating ([10]; Preemergence, scale 0 to 100) | Plant response rating, Rice [14, 21] | Plant response rating, Rice [14, 24]
65: Plant response rating, Bermudagrass [4, 15] | Plant response rating, Goosegrass [8, 15] | Plant response rating, Barnyardgrass [11, 22] | Plant response rating, Rice [14, 23]
20: Crabgrass, Large plant response rating ([9]; Preemergence, scale 0 to 100) | Plant response rating, Barnyardgrass [11, 21] | Plant response rating, Sedge, Umbrella [12, 24]
40: Plant response rating, Ducksalad [13, 22] | Plant response rating, Ducksalad [13, 23]
10: Plant response rating, Barnyardgrass [11, 24]
70: Plant response rating, Goosegrass [8, 16] | Plant response rating, Goosegrass [8, 17] | Plant response rating, Barnyardgrass [11, 23]
90: Ryegrass, Italian plant response rating ([1]; Preemergence, scale 0 to 100)
95: Plant response rating, Ryegrass, Italian [1, 16] | Plant response rating, Ryegrass, Italian [1, 17] | Plant response rating, Crabgrass, Large [9, 16]
100: Plant response rating, Ryegrass, Italian [1, 18] | Plant response rating, Ryegrass, Italian [1, 19] | Plant response rating, Ryegrass, Italian [1, 20] | Plant response rating, Bermudagrass [4, 16] | Plant response rating, Bermudagrass [4, 17] | Plant response rating, Goosegrass [8, 20] | Plant response rating, Crabgrass, Large [9, 19] | Plant response rating, Crabgrass, Large [9, 20]
5: Ryegrass, Italian plant response rating ([1]; postemergence, 0-100 scale)
85: Plant response rating, Ryegrass, Italian [1, 15] | Plant response rating, Crabgrass, Large [9, 15] | Plant response rating, Crabgrass, Large [9, 18]
98: Plant response rating, Goosegrass [8, 18] | Plant response rating, Goosegrass [8, 19] | Plant response rating, Crabgrass, Large [9, 17]
30: Plant response rating, Sedge, Umbrella [12, 21] | Plant response rating, Sedge, Umbrella [12, 22] | Plant response rating, Sedge, Umbrella [12, 23] | Plant response rating, Ducksalad [13, 21] | Plant response rating, Ducksalad [13, 24] | Plant response rating, Rice [14, 22]
60: Bermudagrass plant response rating ([4]; postemergence, 0-100 scale) | Goosegrass plant response rating ([8]; Preemergence, scale 0 to 100) | Crabgrass, Large plant response rating ([9]; postemergence, 0-100 scale)
